Experimental data from paper PMC6140548 (Oncoimmunology, 2018).

Target: HLA-A02:01 (MHC-I) on the surface of TAP-deficient T2 cells (Homo sapiens, UniProt P04439, D140Y/D185E/D98H/E176V/E277Q/G131W/G231S/I119V/I121R/I166T/I218V/L300P/L318F/N151K/N90K/P208A/P217A/Q86G/Q94H/R138H/R169H/T345S)
Assay: Peptide binding assay using TAP deficient T2 cells
Assay type: cell-based
Details: PAX7-encoded 9-mer; statement of the discussion

GLVSSISRV
affinity for HLA-A02:01 (in words): very high affinity
